The values that follow come from patent US6699662B1, “Inhibitors of staphylococcus SarA protein function involved in the expression of staphylococcal virulence factors and the use thereof in treating staphylococcal infections” (priority 1999, dated 2004).

Data set [1] deals with SarA-DNA complex (SarA and ds A1/A2 DNA). The settings on record: for effect of PNA added to the complexed SarA and radiolabeled ds A1/A2 DNA: PNA added to a mixture of SarA and ds A1/A2 DNA.
Description: The first tests of potential inhibitors are made using EMSA. Briefly, ^32P-labeled DNA fragments that correspond to the PNA or HP molecules are used as the targets. […] The concentration of SarA required to bind 50% of the DNA fragment is determined empirically. To determine the degree of inhibition, a mixture of SarA and ^32P-labeled DNA that gives 50% free DNA and 50% bound DNA (called 100% in this assay) is titrated with the PNA molecule. The concentration of PNA that reduces the SarA-DNA complex by 50% is the IC50 value. Using this simple, but effective testing procedure, the PNA or HP design is varied with regard to the sequence targeted and the length of PNA or HP molecules.
The samples were analyzed by standard EMSA and phosphorimaging.
Data set [2] concerns A1/A2 oligonucleotide (SarA binding site of the agr locus). Kind of data set: EMSA of PNA binding to radiolabeled A1/A2 oligonucleotide. On the set-up: species or system Staphylococcus aureus. The text has this: The present invention also is directed to a method of identifying inhibitors of SarA function involved in the expression of staphylococcal virulence genes comprising: a) contacting a candidate inhibitor with at least one SarA binding site of the agr locus in solution to allow the binding reaction to equilibrate for a sufficient period of time; and b) assessing the binding of said candidate inhibitor to said SarA binding site of the agr locus. (See FIG. 15 for an example of the results of this method.) The method further comprises the addition of SarA to the solution of step a) simultaneously with the inhibitor and the SarA binding site, and then an assessment of the binding affinity of the candidate inhibitor relative to the binding affinity of the SarA to the SarA binding site of the agr locus. Alternatively, the addition of SarA to the solution of step a) is sequentially with the inhibitor and the SarA binding site, and then the assessment of the binding affinity of said candidate inhibitor relative to the binding affinity of said SarA to the SarA binding site of the agr locus. (See FIG. 16 for an example of the results of this method showing the results with and without the addition of SarA.)
A prototype PNA inhibitor of SarA-agr binding is constructed and tested. […] The complexes were resolved by native gel electrophoresis and detected by phosphorimaging. […]

As for gly-TCCAATTTTTCTTAACTA-lys [18-mer], the “competition with SarA for binding to A1/A2 DNA” value in data set [1] (10 nM dsDNA incubated with PNA (0.750 pM, 7.5, 75, 750 nM) overnight, then 10 nM SarA added, FIG. 16) is reported as “able to outcompete SarA for binding to the DNA”. Also, the “effect of PNA added to the complexed SarA and radiolabeled ds A1/A2 DNA” value in data set [1] is on record as “the complex changed from the SarA-DNA complex to the PNA-DNA complex”.

On to “gly-TTTCTTAACTA-lys (N-terminal glycine and C-terminal lysine attached, backbone not given here, further chemistry not given here; listed as Staphylococcus aureus) [PNA-1]”, for which the “effect of PNA added to the complexed SarA and radiolabeled ds A1/A2 DNA” value in data set [1] is recorded as “did not change this complex”. Moreover, the “fraction of PNA active in the binding assay” value in data set [2] (20 nM 32P-labeled A1/A2, FIG. 15) is “nearly all, if not all”. In addition, the “binding / affinity of PNA for the A1/A2 oligonucleotide” value in data set [2] (20 nM 32P-labeled A1/A2, varying PNA concentrations, FIG. 15) was “very high”.
